{"source": "patent US11382884B2", "about": "“Method for reducing lung infection” (priority 2017, dated 2022)", "key": {"[1]": {"tested_on": "P. aeruginosa WACC91 planktonic cells", "test": "Checkerboard, tobramycin with other chelators", "assay_type": "cell-based, Pseudomonas aeruginosa", "conditions": "for effect on the MIC of tobramycin: concentration-dependent, FIGS. 13 and 14", "experimental": "(§1) Growth method 2: Overnight cultures of the relevant strain of P. aeruginosa were grown in M63 medium supplemented with glucose (0.5% w/v), casamino acids (0.2% w/v) and MgSO4 (1 mM) at 35° C. with shaking. 96-well microplates containing M63 with serial dilutions of antibiotics and adjuvants as indicated were inoculated to OD600 nm 0.01 in a final volume of 200 μl. Plates were incubated at 35° C. overnight without shaking.\nCells were grown according to method 2 and challenged with different concentrations of tobramycin."}, "[2]": {"tested_on": "P. aeruginosa planktonic cells and biofilms", "test": "Microplate test of antibiotics of different classes with buffered CaEDTA", "assay_type": "cell-based, Pseudomonas aeruginosa", "conditions": "growth method 2; FIGS. 7-12", "experimental": "as §1\n(§2) Planktonic growth was monitored by OD reading or plate counting. Biofilms were quantified by staining with 40 μl of crystal violet stain (1% w/v in water) for 10 min at room temperature, washing twice with 250 μl of water, dissolving the stain in 250 μl of 50% ethanol and reading optical density at 595 nm.\nCells were grown according to method 2 and challenged with buffered CaEDTA and a series of clinically relevant antibiotics of different classes with different modes of action."}, "[3]": {"tested_on": "P. aeruginosa ATCC27853", "test": "Time-kill assay, ceftazidime with or without buffered CaEDTA", "assay_type": "cell-based, Pseudomonas aeruginosa", "conditions": "ceftazidime 128 ug/ml, buffered CaEDTA 20 mM", "experimental": "This is likely a result of increased antibiotic killing. Challenge microorganisms were grown on solid agar and suspended in 0.9% Sodium Chloride (SCl) to create a challenge suspension. A 0.1 mL aliquot of the challenge suspension containing approximately 1×10^8 colony forming units was then inoculated into 10 mL Cation-Adjusted Mueller Hinton Broth (CaMHB) with the appropriate antibiotic or antibiotic with chelator, as indicated, and mixed thoroughly. The challenge suspension/antibiotic mixtures were then incubated at 35 degrees C. for the exposure time. At each timepoint, 0.1 mL aliquots were removed and placed into 9.9 mL of Butterfield's Phosphate Buffer with product neutralizers, mixed thoroughly by vortexing, and plated using the appropriate agar. Recovered colonies were enumerated using a hand-tally counter."}, "[4]": {"tested_on": "Staphylococcus aureus MRSA", "test": "Antibiotics with buffered CaEDTA against MRSA", "assay_type": "cell-based", "conditions": "FIG. 19 (vancomycin), FIG. 21 (ciprofloxacin)", "experimental": "(§3) Checkerboard assays of other species were carried out using growth method 1, apart from the following variations. Burkholderia cepacia was incubated at 30° C., and other bacteria were incubated at 37° C. Streptococcus pyogenes and Streptococcus pneumoniae were grown in Todd Hewitt Broth, and Staphylococcus aureus was grown in Veal Infusion Broth."}, "[5]": {"tested_on": "P. aeruginosa WACC91", "conditions": "for interaction with tobramycin, planktonic growth (OD600 nm): checkerboard", "experimental": "(§4) Growth method 1: Cells were grown in M9 medium supplemented with arginine and MgSO4, in polystyrene 96-well plates (Nunc) by seeding each well with […] of an overnight culture of P. aeruginosa strain WACC 91 and incubating at 37° C. for 24 hours.\n(§5) Anaerobic cultures were incubated in a closed chamber with anaerobic sachets to remove oxygen.\nas §2\n(§6) Cells of P. aeruginosa WACC91 were grown according to method 1 and tested in a checkerboard assay against tobramycin and CaEDTA in varying concentrations."}, "[6]": {"tested_on": "P. aeruginosa WACC91 biofilms", "test": "Checkerboard, biofilm growth (crystal violet staining), tobramycin with CaEDTA or buffered CaEDTA", "assay_type": "cell-based, Pseudomonas aeruginosa", "experimental": "as §4, §5, §2, §6"}, "[7]": {"tested_on": "P. aeruginosa biofilms", "experimental": "Biofilm disruption or killing was monitored by growing cells as described and removing planktonic cells by pipetting. The attached biofilm was washed carefully with sterile PBS three times, and fresh medium containing the treatment (tobramycin alone or together with CaNa2EDTA in solution, tris-buffered solution, or as dry powder particles) was added. Plates were incubated for a further 24 hours and metabolic activity was measured. Biofilms were washed as described above, then fresh medium containing 0.02% w/v resazurin was added. Plates were shaken briefly to mix, then incubated at 37° C. for 2 hours. Metabolic activity, as reflected by the conversion of resazurin to resafurin, was assessed by measuring the increase in fluorescence at an excitation wavelength of 530 nm with detection at 590 nm."}, "[8]": {"tested_on": "P. aeruginosa clinical strain biofilms", "test": "Biofilms in hanging drops of CF mucus treated with nebulised tobramycin and/or aerosolised EDTA particles", "assay_type": "cell-based, Pseudomonas aeruginosa", "conditions": "for biofilm viability (BacLight LIVE/DEAD, confocal microscopy): 5 min treatment, nebulised tobramycin 20 mg/ml and/or aerosolised EDTA particles 10 mg/ml, 16 hours incubation, FIG. 24A", "procedure": "Biofilms were grown in a realistic in vitro model using suspended drops of cystic fibrosis mucus harvested from epithelial cell lines (Haley, C. L., Colmer-Hamood, J. A., and Hamood, A. N. (2012). Characterization of biofilm-like structures formed by Pseudomonas aeruginosa in a synthetic mucus medium. BMC Microbiol 12, 181.).\nDrops of mucus (5 μl) were suspended from an inverted IBIDI cover slip and inoculated with 10^3 cfu, then incubated in a humidified environment at 35° C. for 72 hours to allow biofilm development. […] Controls were treated with a 50/50 solution of nebulised 0.9% saline/water. Following treatment, the drops were incubated for 16 hours, then stained with BacLight LIVE/DEAD (1 μl), and fixed in paraformaldehyde vapour for 30 min. Biofilms were visualised using confocal microscopy."}, "[9]": {"conditions": "300 mg/day for two weeks (75 mg QID); FIG. 26", "experimental": "Subjects were then discharged and treatment was continued twice a day for four weeks. Patients were monitored for a further four weeks, bringing the total study time to 10 weeks. At each study visit, lung function was measured by spirometry. Data was recorded as the best of three attempts, and results were expressed as % predicted."}, "[10]": {"conditions": "single dose of 75 mg CaEDTA; after 30 minutes; FIG. 28", "experimental": "Vials were then centrifuged at 100 g for 5 min to sediment precipitated proteins and 754 μL of the methanol extract taken for derivatisation. […] Derivatised extract (1 μl) was injected into a Waters microflow HPLC equipped with a triple quad mass […] detector."}, "[11]": {"tested_on": "Klebsiella pneumoniae planktonic cells and biofilms", "test": "Checkerboard, colistin with buffered CaEDTA", "assay_type": "cell-based", "experimental": "as §3"}, "[12]": {"tested_on": "Burkholderia cepacia planktonic cells", "test": "Checkerboard, antibiotics with buffered CaEDTA", "assay_type": "cell-based", "conditions": "FIGS. 15 and 16", "experimental": "as §3"}, "[13]": {"tested_on": "S. aureus MSSA", "test": "Ciprofloxacin with buffered CaEDTA against MSSA", "assay_type": "cell-based, Staphylococcus aureus", "conditions": "FIG. 20", "experimental": "as §3"}, "[14]": {"tested_on": "P. aeruginosa clinical strain", "test": "MIC of tobramycin for the clinical strain", "assay_type": "cell-based", "conditions": "Pseudomonas aeruginosa; P. aeruginosa clinical strain used in the CF mucus model"}, "[15]": {"tested_on": "P. aeruginosa", "conditions": "ten CF children, nebulised sodium EDTA and oral tetracycline for three months; cited from earlier work"}, "[16]": {"conditions": "4 ug/ml tobramycin, 6.25 mM CaEDTA, aerobic and anaerobic, FIG. 5"}}, "note": "Read-outs that look alike come from different tables or passages of the source.", "data": [{"molecule": "O=C(O)CN(CCOCCOCCN(CC(=O)O)CC(=O)O)CC(=O)O", "note": "[EGTA, ethylene glycol tetraacetic acid]", "values": [{"measurement": "effect on the MIC of tobramycin", "setting": "[1]", "value": "reduce the MIC"}]}, {"molecule": "C[C@H]1[C@H](NC(=O)/C(=N\\OC(C)(C)C(=O)O)c2csc(N)n2)C(=O)N1S(=O)(=O)O", "note": "[aztreonam]", "values": [{"measurement": "sensitivity of P. aeruginosa to the antibiotic in the presence of buffered CaEDTA", "setting": "[2]", "value": "increases the sensitivity"}]}, {"molecule": "CC(C)(O/N=C(\\C(=O)N[C@@H]1C(=O)N2C(C(=O)[O-])=C(C[n+]3ccccc3)CS[C@H]12)c1csc(N)n1)C(=O)O", "note": "[ceftazidime]", "values": [{"measurement": "rate of killing in the presence of buffered CaEDTA", "setting": "[3]", "value": "much more rapid"}]}, {"molecule": "CC[C@H]1OC(=O)[C@H](C)[C@@H](O[C@H]2C[C@@](C)(OC)[C@@H](O)[C@H](C)O2)[C@H](C)[C@@H](O[C@@H]2O[C@H](C)C[C@H](N(C)C)[C@H]2O)[C@](C)(O)C[C@@H](C)C(=O)[C@H](C)[C@@H](O)[C@]1(C)O", "note": "[erythromycin]", "values": [{"measurement": "sensitivity of P. aeruginosa to the antibiotic in the presence of buffered CaEDTA", "setting": "[2]", "value": "increases the sensitivity"}]}, {"molecule": "CN[C@H](CC(C)C)C(=O)N[C@H]1C(=O)N[C@@H](CC(N)=O)C(=O)N[C@H]2C(=O)N[C@H]3C(=O)N[C@H](C(=O)N[C@H](C(=O)O)c4cc(O)cc(O)c4-c4cc3ccc4O)[C@H](O)c3ccc(c(Cl)c3)Oc3cc2cc(c3O[C@@H]2O[C@H](CO)[C@@H](O)[C@H](O)[C@H]2O[C@H]2C[C@](C)(N)[C@H](O)[C@H](C)O2)Oc2ccc(cc2Cl)[C@H]1O", "note": "[vancomycin]", "values": [{"measurement": "MIC in the presence of buffered CaEDTA", "setting": "[4]", "value": "reduced MIC values"}]}, {"molecule": "O=C([O-])CN(CCN(CC(=O)[O-])CC(=O)[O-])CC(=O)[O-].[Ca+2].[Na+].[Na+]", "note": "[CaEDTA]", "values": [{"measurement": "planktonic growth when CaEDTA is added to tobramycin", "setting": "[5]; [16]", "value": "reduced"}, {"measurement": "interaction with tobramycin, planktonic growth (OD600 nm)", "setting": "[5]; aerobic conditions, FIG. 1", "value": "synergistic effect"}, {"measurement": "interaction with tobramycin, planktonic growth (OD600 nm)", "setting": "[5]; anaerobic conditions, FIG. 3", "value": "synergistic effect"}, {"measurement": "effect on the MIC of tobramycin", "setting": "[5]; planktonic cells, aerobic conditions, FIG. 1", "value": "lowers the MIC"}, {"measurement": "lowest effective concentration in vitro", "setting": "[5]; with tobramycin, FIGS. 1B and 2B", "value": 0.078, "unit": "mM"}, {"measurement": "biofilm growth when CaEDTA is added to tobramycin", "setting": "[6]; [16]", "value": "reduced"}, {"measurement": "interaction with tobramycin, biofilm growth (CV staining)", "setting": "[6]; aerobic conditions, checkerboard, FIG. 2", "value": "synergistic effect"}, {"measurement": "effect on the concentration of tobramycin required to block biofilm formation", "setting": "[6]; aerobic, FIG. 2", "value": "lowers the concentration of tobramycin required"}, {"measurement": "interaction with tobramycin, biofilms", "setting": "[6]; anaerobic conditions, checkerboard, FIG. 4", "value": "synergistic effect"}, {"measurement": "effect on efficacy of tobramycin against existing biofilms (metabolic activity)", "setting": "[7]; FIG. 6", "value": "increases the efficacy"}, {"measurement": "dependence of the synergistic effect on mode of delivery", "setting": "[7]; solution or dry powder, FIG. 6B", "value": "does not depend on the mode of delivery"}, {"measurement": "interaction with tobramycin, metabolism of biofilms", "setting": "[7]; submicron particles of CaEDTA, aerosolised, 96-well plates, FIG. 6", "value": "synergistic effect"}, {"measurement": "effect on killing of biofilms by tobramycin", "setting": "[7]; tobramycin concentrations<1 mg/ml, FIG. 6A", "value": "substantially enhances killing"}, {"measurement": "biofilm viability (BacLight LIVE/DEAD, confocal microscopy)", "setting": "[8]", "value": "some degree of killing"}, {"measurement": "interaction with tobramycin on biofilms in CF mucus", "setting": "[8]; submicron particles of CaEDTA, tobramycin 325 μg/ml final in droplets, FIG. 24", "value": "act synergistically"}, {"measurement": "improvement in lung function (FEV1), average", "setting": "[9]", "value": 16, "unit": "% points"}, {"measurement": "EDTA inside mucus plugs", "setting": "[10]", "value": "up to 1.34 mM"}]}, {"molecule": "O=C(O)CN(CCN(CC(=O)O)CC(=O)O)CCN(CC(=O)O)CC(=O)O", "note": "[DTPA, diethylenetriaminepentaacetic acid]", "values": [{"measurement": "interaction with tobramycin", "setting": "[1]; FIG. 14", "value": "synergy"}, {"measurement": "effect on the MIC of tobramycin", "setting": "[1]", "value": "reduce the MIC"}]}, {"molecule": "CC1(C)S[C@@H]2[C@H](NC(=O)C(C(=O)O)c3ccccc3)C(=O)N2[C@H]1C(=O)O", "note": "(stereo partly shown) [carbenicillin]", "values": [{"measurement": "sensitivity of P. aeruginosa to the antibiotic in the presence of buffered CaEDTA", "setting": "[2]", "value": "increases the sensitivity"}]}, {"molecule": "colistin", "values": [{"measurement": "sensitivity of P. aeruginosa to the antibiotic in the presence of buffered CaEDTA", "setting": "[2]", "value": "increases the sensitivity"}, {"measurement": "sensitivity of planktonic cells in the presence of buffered CaEDTA", "setting": "[11]; FIG. 17A", "value": "sensitized"}, {"measurement": "sensitivity of biofilms in the presence of buffered CaEDTA", "setting": "[11]; FIG. 17B", "value": "sensitized"}]}, {"molecule": "O=C(O)c1cn(C2CC2)c2cc(N3CCNCC3)c(F)cc2c1=O", "note": "[ciprofloxacin]", "values": [{"measurement": "MIC of B. cepacia in the presence of buffered CaEDTA", "setting": "[12]", "value": "lowered"}, {"measurement": "MIC in the presence of buffered CaEDTA", "setting": "[4]", "value": "reduced MIC values"}, {"measurement": "MIC in the presence of buffered CaEDTA", "setting": "[13]", "value": "reduced MIC values"}]}, {"molecule": "NC[C@H]1O[C@H](O[C@H]2[C@H](O)[C@@H](O[C@H]3O[C@H](CO)[C@@H](O)[C@H](N)[C@H]3O)[C@H](N)C[C@@H]2N)[C@H](N)C[C@@H]1O", "note": "[tobramycin]", "values": [{"measurement": "biofilm formation at sub-MIC concentration", "setting": "[6]; tobramycin alone, 4 ug/ml, FIG. 5", "value": "increase biofilm formation"}, {"measurement": "MIC of B. cepacia in the presence of buffered CaEDTA", "setting": "[12]", "value": "lowered"}, {"measurement": "biofilm viability (BacLight LIVE/DEAD, confocal microscopy)", "setting": "[8]", "value": "little effect on viability"}, {"measurement": "MIC", "setting": "[14]", "value": "> 256", "unit": "µg/mL"}]}, {"molecule": "sodium EDTA", "values": [{"measurement": "lung function or infection status", "setting": "[15]", "value": "no change in lung function or infection status"}]}, {"molecule": "COc1cccc(OC)c1C(=O)N[C@@H]1C(=O)N2[C@@H]1SC(C)(C)[C@@H]2C(=O)O", "note": "[methicillin]", "values": [{"measurement": "sensitivity of P. aeruginosa to the antibiotic in the presence of buffered CaEDTA", "setting": "[2]", "value": "increases the sensitivity"}]}]}
